We go through four compounds from US10188858B2, “Method and device for treating a tissue with a high frequency electromagnetic field” (University of Cincinnati, priority 2013, dated 2019).

For one experiment, the system named is MEK. Kind of experiment: Total and phosphorylated MEK levels (sandwich ELISA) with inhibitors. The class given is cell-based, C57 mice. From the text: (§1) Murine microvascular endothelial cells were isolated from the lungs of C57 mice (Jackson Laboratory, Maine, USA) as described previously. Cells were doubly sorted using PECAM-1- and ICAM-2-conjugated magnetic beads (Invitrogen Corporation, CA, USA) and cultured in medium M199 (HyClone, UT, USA) supplemented with 10% fetal bovine serum (FBS; Atlanta Biologicals, GA, USA), 1% antibiotic/antimycotic (AB/AM; Atlanta Biologicals, USA), 1% heparin (Sigma-Aldrich, MO, USA) and 1Ong/mL endothelial growth factor supplement (Sigma-Aldrich, MO, USA). Cells from passages 4-9 were used. All experiments were conducted in the culture medium (medium M199, 10% FBS, 1% antibiotic/antimycotic and 1% heparin) without additional growth factor supplementation.
(§2) Capillary morphogenesis, and MAPK pathways activation were quantified following 12 hours of EF exposure, and the analyses of VEGF expression, cell proliferation and apoptosis were conducted up to 24 hours of EF exposure. The experimental groups included endothelial cells exposed to high frequency EF, low frequency EF and a group not exposed to EF.
(§3) After EF exposure, cells were lysed using buffer containing 20 mM Tris-HCl, 150 mM NaCl, 1 mM Na2EDTA, 1 mM EGTA, 1% Triton, 2.5 mM sodium pyrophosphate, 1 mM beta-glycerophosphate, 1 mM Na3VO4, 1 μg/ml leupeptin and 1 mM phenylmethylsulfonyl fluoride (PMSF). The total protein concentration in each sample lysate was determined using CoomassiePlus Assay Kit (Thermo Fisher Scientific, IL, USA). 10 μg of total protein was used for all MAPK pathway ELISAs. The total and phosphorylated levels of ERK, MEK, p38 and JNK proteins were quantified using appropriate sandwich ELISA kits (Cell Signaling Technology, MA, USA). MEK-cRaf complex levels and free (unbound) MEK levels were quantified according to previously described protocols with modifications. The total MEK levels are presented in optical densities and phosphorylated MEK, MEK-cRaf and pMEK-cRaf levels are normalized to total MEK levels. For negative control, β-actin (Invitrogen, USA) was immunoprecipitated from the lysate and subjected to ELISAs. All ELISA assays were performed in duplicates or triplicates, with all experiments repeated at least N=6 times.
To determine the role of VEGF signaling in EF-mediated angiogenic responses, experiments were repeated in the presence of 0.1 μg/mL soluble anti-mouse VEGF blocking antibody (R&D Systems, MN, USA), or 5 μM SU5416 (Sigma-Aldrich, MO, USA), a specific pharmacological VEGFR2inhibitor, or in the presence of 10 μM U0126 MEK inhibitor (Sigma-Aldrich, MO, USA). […] To examine the role of PI3K, Ca^2+ and eNOS signaling in EF-mediated MEK activation, cells were treated with 10 μM LY294002 (PI3K inhibitor), 10 μM BAPTA (Ca^2+ chelator), or 200 μM Nω-Nitro-L-arginine methyl ester hydrochloride (L-NAME, eNOS inhibitor),respectively, and the total and phosphorylated MEK levels were measured using ELISA. All inhibitors were added to the culture supernatant and pre-incubated for one hour to equilibrate respective target blocking prior to EF exposure. All analyses were done in duplicates/triplicates, and all inhibitor experiments were repeated at least N=3 times.
Background: ELISA stands for enzyme-linked immunosorbent assay.

In experiment [1] the test system is Murine microvascular endothelial cells. The experiment is described as follows: In vitro capillary morphogenesis (nanofiber-based angiogenesis assay) with inhibitors. Type of experiment: cell-based, C57 mice. On the procedure: Cells from passages 4-9 were used. […] Capillary morphogenesis was assessed using nanofiber-based angiogenesis assay previously developed in the lab, in which endothelial cells seeded on RAD16-II peptide nanofiber hydrogel (SynBioSci Corporation, CA, USA) undergo spontaneous capillary morphogenesis with clearly identifiable lumens in the absence of external angiogenic growth factors. Endothelial cells were seeded on the surface of 1% (w/v) hydrogel in cell culture inserts (Millipore, MA, USA) at a seeding density of 10^5 cells/cm^2. Cells seeded on 5% gelatin-coated inserts were used as a negative control. Cells were labeled with CellTracker dye (Invitrogen, USA) before seeding or with Phalloidin-TRITC (Sigma Aldrich, St Louis, Mo., USA). After EF exposure, samples (at least N=10 separate EF exposure experiments per group) were fixed with 2% formaldehyde, and images of the sample surface (n=5 per sample) were captured at 20× magnification using an inverted fluorescent microscope (Olympus IX81; Olympus, Pa., USA). The characteristic size of capillary-like networks was determined using correlation analysis and custom-written MATLAB code (The Math Works, MA, USA).

The next experiment has as its system VEGF. The experiment is described as follows: VEGF protein release by endothelial cells (ELISA) with inhibitors. The class given is cell-based, C57 mice. The source says: Cells from passages 4-9 were used. […] VEGF and PIGF are two major angiogenic cytokines acting through VEGF receptors pathway. VEGF binds to both VEGFR1 and VEGFR2 receptors, although signals through VEGFR2. In contrast, PIGF which only binds to and signals through VEGFR1. To determine the effect of EF on the VEGF and PIGF protein release by endothelial cells, culture medium samples (at least N=6 separate experiments) were used to measure VEGF and PIGF protein levels using appropriate ELISA kits (R&D Systems, MN, USA).

A further experiment concerns MEK-cRaf complex. The settings on record: high frequency EF in the presence of 10 μM U0126, compared to low frequency or no-EF groups.
Text: as §1, §2
as §3, with “All ELISA assays were performed in duplicates or triplicates, with all experiments repeated at least N=6 times.” left out

Setting [2] is: 10 μM U0126, all experimental groups, compared to no inhibitor controls.
Setting [3] is: 10 μM U0126, high frequency EF vs low frequency EF and no-EF groups.

As for `COC(=O)[C@@H](N)CCCNC(=N)N[N+](=O)[O-].Cl` [L-NAME, Nω-Nitro-L-arginine methyl ester hydrochloride], the “EF-induced increase in pMEK” value with MEK (200 μM L-NAME, high frequency EF) was “abolished”. Further, in the experiment on MEK (200 μM L-NAME, no-EF controls), the “base pMEK levels” value is reported as “did not affect”.

In the case of `N#CC(=C(/N)Sc1ccccc1N)/C(C#N)=C(\N)Sc1ccccc1N` [U0126], the “capillary morphogenesis (network size)” value in experiment [1] (setting [2]) is given as “significantly reduced”. The “effect of high frequency EF on capillary morphogenesis” value in experiment [1] (setting [3]) is reported as “effectively reversed”. In the experiment with VEGF (setting [2]), the “VEGF release by endothelial cells” value is listed as “significantly reduced”. Besides, the “effect of high frequency EF on VEGF release” value in the experiment on VEGF (setting [3]) is listed as “effectively reversed”. The “total concentration of MEK” value with MEK (presence of 10 μM U0126) is “did not affect”. In the experiment with MEK-cRaf complex, the “free MEK levels” value is given as “increased”, the “phosphorylation of MEK-cRaf complex (pMEK-cRaf)” value was “reduced” and the “protein levels of MEK-cRaf complex” value is reported as “reduced”.

As for `Cc1cc(C)c(/C=C2\C(=O)Nc3ccccc32)[nH]1` [SU5416], the capillary morphogenesis result in experiment [1] (5 μM SU5416, all experimental groups, including no-EF controls, 12 hours) is recorded as “completely abolished”. For the same compound, the VEGF release result in the experiment on VEGF (5 μM SU5416, all experimental groups, including no-EF controls) is “significantly reduced”. For the same compound, the “high frequency EF-induced MEK phosphorylation” value in the experiment on MEK (5 μM SU5416, 7.5 GHz EF vs low frequency and no-EF controls) is “did not block”.

For `O=C(O)CN(CC(=O)O)c1ccccc1OCCOc1ccccc1N(CC(=O)O)CC(=O)O` [BAPTA], the MEK phosphorylation levels entry in the experiment on MEK (10 μM BAPTA, high frequency EF and no-EF groups) is “significantly reduced”. Further, the “phosphorylated MEK levels in high frequency EF group compared to no-EF controls” value with MEK (in the presence of 10 μM BAPTA) is recorded as “lower”.
